Where two headings read alike, the source gives them in different places.
Key:
[1] = Multiple dose oral toxicokinetic (target animal safety) study; details: for AUC / Cmax: both, Beagle, dog, plasma, po; for AUC: AUC168, group 1X; for accumulation ratio, loading dose normalised to maintenance dose: weeks 13 and 31 vs week 1, all dose levels
Excerpt: (§1) This study was designed as a Target Animal Safety (TAS) study, to assess the effects of repeated oral administrations of enflicoxib at either the recommended dose (1X), three times the dose (3X) or five times the dose (5X), that were compared to an untreated group (placebo, 0X) and followed the internationally agreed TAS guideline (VICH GL[43], [2008]). Blood samples were taken during the study to assess the dose‐exposure proportionality after single and repeated dose administrations.
(§2) Thirty‐two male and female healthy Beagle dogs, 8–10 months old and experimentally naïve, were obtained from a laboratory animal supplier. All animals were acclimatised for 28 days before study initiation. All dogs were housed in pairs of the same sex and dose group in indoor pens under temperature and humidity‐controlled conditions (15 to 24°C, 40–70% RH). Artificial lighting was provided for approximately 12 h per day. […] For each group, periods of exercise and socialisation were permitted daily. Animals were fed daily with 400 g of a certified commercial pelleted diet.
(§3) Dogs were stratified by sex and weight, (16 males weighing 6.7–9.9 kg and 16 females weighing 5.3–7.0 kg) and allocated to four groups (0X, 1X, 3X and 5X) using a pseudo‐random body weight stratification procedure, which yielded groups of four dogs of each sex with approximately equal mean body weight. Dogs were distributed in a block of several adjacent pens and identified by a microchip inserted shortly after arrival.
(§4) Enflicoxib was supplied as commercial Daxocox® tablets containing 15, 30, 45, 70 or 100 mg of enflicoxib (Ecuphar/Animalcare). The number and size of the tablets administered orally were calculated weekly based on the most recent body weights and the target dose level required. Tablets were administered once weekly, for a total of 13 weeks (5X group) or 32 weeks (0X, 1X and 3X groups). Tablets administration was followed by 10–20 ml tap water to facilitate passage of drug to the stomach.
(§5) Blood samples were collected as described for the determination of blood concentrations of enflicoxib and its pyrazol metabolite. The sampling schedule was at 6 h (on week 1 only), 24, 48, 72, 96, 120, 144 and 168 h post dose in weeks 1, 13 and 31, Additionally, weekly samples were taken prior to each dose throughout the study. Plasma was obtained and stored as described before.
(§6) The AUCt and AUCinf values were calculated with linear trapezoidal rule, and the extrapolation of AUCt to obtain AUCinf was performed using the observed concentration at the last time point. Due to the limited time between doses, the terminal rate constants (λz), and corresponding terminal half‐lives (t1/2), were calculated only for the parent compound. […] The accumulation ratios, based on AUC168 values of both compounds, were calculated at weeks 13 (last experimental week for the 5X group) and 31 (last experimental week for the other groups).
(§7) For the repeated oral dose study, analyses of variance were performed for week 1 and week 13 data separately, including all three dose levels to assess dose proportionality. For weeks 13 and 31, the analysis was done for the low and mid dose levels only, adjusted to 1 mg/kg. The factors in these analyses were dose group, time, sex and their interactions. Animal was included as a blocking factor since the same animals were bled on each sampling day. The data were logarithmically transformed prior to its analysis using SAS 9.4 (SAS Institute (2002) SAS OnlineDoc® Version Nine. SAS Institute Inc.).

[2] = Single intravenous dose pharmacokinetic study
Method: (§8) For the IV administration, a stable 2 mg/ml enflicoxib injectable solution was prepared in a vehicle containing 20% ethanol, 8% kolliphor HS‐15 and 72% water, and sterilised using a ≤0.22‐µm syringe filter. To avoid administering an excessive volume of product, dogs in the IV group received a single dose of 2 mg/kg and were followed for 35 days. A 22‐gauge ¾” catheter was introduced into the cephalic vein, using aseptic technique. A syringe with sterile saline was used to test the patency of the vein. The calculated volume of the solution was slowly administered through the catheter over approximately 1 min. Approximately 1–2 ml of sterile saline was used to flush the catheter following drug administration.
(§9) Blood samples (2 ml) were collected from the jugular vein in K3EDTA tubes for determination of plasma concentrations of enflicoxib and its metabolites, at the following time points:
(§10) Blood samples were centrifuged within 30 min after collection at 2500 g for 10 min at ca. +5 °C. The resultant plasma was divided into 2 aliquots and frozen at ca. −20°C until analysis.
(§11) Method for enflicoxib and its pyrazol metabolite in plasma involved its extraction from 100 µL samples by solid phase extraction (Oasis MCX 30 μm 96‐well plates, 10 mg; Waters) and separated by reverse‐phase liquid chromatography on a Luna PFP (2) column (3 μm, 50 × 4.6 mm; Phenomenex), in gradient mode elution using 0.1% FA in water and MeOH 60:40 (v/v) as mobile phase flushed a flow rate of 1 ml/min. Celecoxib was used as internal standard.
(§12) The pharmacokinetic parameters were obtained from the individual plasma concentration‐time profiles of enflicoxib or its metabolites in each animal, by non‐compartmental analysis using Phoenix® WinNonLin® software (version 8.0. Pharsight Corporation). For all calculations, values below lower limit of quantification (BLLOQ) were considered as “0” except trailing concentrations, which were excluded from calculations.
(§13) Additional pharmacokinetic parameters calculated for the IV treatment were plasma clearance (CL) as CL = Dose/AUCinf; volume of distribution at steady‐state (Vss) as Vss = MRTINF × CL; volume of distribution based on the terminal phase (Vz) as Vz = CL/ λz); and Mean resident time (MRT) was calculated as MRT = AUMC/AUC, with AUMC being the area under the first moment curve. For enflicoxib, C0 was calculated as the extrapolated plasma concentration at time zero after IV administration.

plasma proteins = experiment: In vitro plasma protein binding (rapid equilibrium dialysis); type: in vitro ADME; details: pH 7.4, dog plasma, 160, 400 and 1600 ng/ml (0.4, 1, 4 µM), 37°C, mean values
Method: Equilibrium dialysis studies were performed using the Rapid Equilibrium Dialysis (RED) devices (Waters et al., [2008]) that consist of two chambers separated with a dialysis membrane with a cut‐off of 8.0 kDa (Pierce Biotechnology, ThermoFisher Scientific). The plasma protein binding was determined with blank canine plasma spiked with enflicoxib or its pyrazol metabolite. The highly bound compound tolterodine was used as a positive control. Stock solutions of the tested compounds were prepared at 10 mM concentration in DMSO and were immediately used or stored at −20 °C (±5°C) until further use.
Samples were prepared by spiking dog plasma with the compounds at three increasing concentrations (0.4 µM, 1 µM and 4 µM). Plasma samples were loaded (200 µl) in the donor chambers while the opposite chamber contained 350 µl of dialysis buffer (0.1 M phosphate buffer, pH 7.4). Dialysis was run at 37°C for 4 h with continuous shaking. […] The unbound fractions for enflicoxib or its pyrazol metabolite were determined by LC‐MS/MS using a modification of the previously described method. […]
The percent of binding to plasma proteins was calculated as: %Protein binding = (Cdonor‐Cacceptor)/Cdonor∗100. where: Cdonor = Concentration in the donor chamber after dialysis; Cacceptor = Concentration in the acceptor chamber after dialysis. […]
For each plasma sample, protein binding was determined in triplicate.

COX‐2 = details: in vitro and in vivo; ref Iñiguez et al., 2010; Wagemakers et al., 2009; cited from earlier work
[3] = design: method as in Ecuphar/Animalcare internal data; details: ref Ecuphar/Animalcare internal data; cited from earlier work
[4] = Distribution into synovial fluid after IV administration; details: day 35 after IV 2 mg/kg enflicoxib
Excerpt: (§14) The distribution into synovial fluid was prospectively investigated in samples corresponding to the last collection timepoint after the IV administration.
(§15) Samples of synovial fluid from the 10 dogs in the IV group were obtained under anaesthesia at 35 days post administration. Blank synovial fluid was obtained from 8 non‐dosed dogs at the same study facilities and pooled before being used for preparation of calibration curve and quality control samples for the qualification of the bioanalytical method.
(§16) Method for hydroxylated pyrazoline metabolite in plasma and for enflicoxib, pyrazol metabolite and hydroxylated pyrazoline metabolite in synovial fluid used the protein‐precipitation technique for extraction from dog samples (50 µl). The analytes were separated by reverse‐phase liquid chromatography on a Kinetex F5 100 Å column (100 × 3.0 mm; Phenomenex), in gradient mode elution using 0.1% FA in water and MeOH as mobile phase flushed a flow rate of 0.75 ml/min. Celecoxib was also used as internal standard.
(§17) For synovial fluid samples, the ratio of synovial fluid to plasma for enflicoxib and its metabolites was calculated at day 35 after IV administration.

[5] = In vitro blood to plasma partitioning; details: female, Beagle, dog, whole blood
Method: Whole blood was obtained from 3 untreated female Beagle dogs (located in Isoquimen SL, Sant Feliu de Codines, Barcelona, Spain) and pooled into two different batches. Lithium heparin was used as anticoagulant. Blood was maintained in a rotator shaker at room temperature before use.
The derived working solutions were freshly prepared each day of experimentation.
The haematocrit (H), percent of total blood cells in whole blood samples (v/v), was determined before the assay. […] The samples were incubated separately (n = 3) at ca 37°C for 60 min under gentle agitation in a rotator shaker in polypropylene tubes. The concentration of organic solvent in the incubates was kept below 0.05% to prevent haemolysis. Reference plasma was incubated similarly in Eppendorf protein LoBind tubes as a surrogate matrix of whole blood to assess total drug concentration (Cb).
For the enflicoxib and pyrazol metabolite determination, the plasma specimens were mixed with AcN containing the internal standard celecoxib for protein precipitation (1:3 ratio plasma: solution). […] After centrifugation, the supernatants were diluted with 0.1% FA in water: AcN (90:10) and injected into the LC‐MS/MS system. […] Blank samples were processed as described before, and were used to check the selectivity and carry‐over of the LC‐MS/MS analytical runs.
The quantification of each test item in plasma was performed using calibration curves ranging from 0.05 to 20 µg/ml. […] In both cases, the LC‐MS/MS response ratios (peak area of analyte/peak area Internal Standard) were used for quantitation.
The analyte concentration obtained from LC‐MS/MS analysis in each sample was used to calculate the blood‐plasma concentration ratio (C b/C p) as follows:
C b/C p = [(concentration in reference plasma; Equivalent to concentration in whole blood) / (concentration in plasma from whole blood)].
From these values, the red blood cells (RBC) to plasma ratio (K RBC/PL) was also calculated using the following equation: KRBC/PL=1/H×Cb/Cp‐1+1 where H: haematocrit.

[6] = Single oral dose pharmacokinetic study, fed or fasted; details: for bioavailability / half-life / Tmax: both, Beagle, dog, plasma; for bioavailability: F% (absolute oral bioavailability); for Tmax: single oral 8 mg/kg enflicoxib, median [min-max]
Excerpt: (§18) Thirty healthy Beagle dogs (males and females) of 1–5 years old at the time of dosing, and bodyweight between 7.4 and 12.3 kg, were housed indoors in climate‐controlled facilities in accordance with accepted laboratory animal care and use guidelines. As the animals belonged to the same centre, they were acclimatised for 5 days before study initiation.
(§19) Dogs were offered approximately 400 g of pelleted canine feed once daily. Fresh potable water was offered ad libitum. All dogs, except those in the Oral‐Fed group, were fasted overnight before dosing and food was offered after the 4‐h blood collection. Dogs in the Oral‐Fed group were supplied with 50% of their daily food ration approximately 1 h before administration, and the remainder of the food was given after the first 15‐min blood collection period post administration.
(§20) The oral groups received a single oral nominal dose of 8 mg/kg of enflicoxib (Daxocox® tablets for dogs, Ecuphar/Animalcare) in its final formulation and were followed for 126 days. The dog’s mouth was opened, the dose placed towards the back of the tongue, and 5 ml of water was administered following the dose to aid in swallowing.
as §9
(§21) Oral groups: Before administration (pre‐dose; Day 1 to Day 0), 15 and, 30 min, 1, 2, 4, 6, 8, 12, 24, 48 h and 3, 4, 6, 7, 10, 14, 21, 28, 42, 56, 70, 84, 98, 112, and 126 days post administration, with the aim to characterise the complete pharmacokinetic profile of the pyrazol metabolite.
as §10
(§22) Plasma concentrations of enflicoxib and its metabolites were measured by two HPLC methods coupled with MS/MS detection (MRM) in negative ion electrospray mode.
as §11, §12

[7] = dog, in vivo, iv, 2 mg/kg
Method: as §8, §9, §10, §11, §12, §13

[8] = dog, in vivo, iv, 2 mg/kg; remark: listed apart in the source
Excerpt: as §14, §15, §16, §17

[9] = dog, in vivo
Excerpt: as §1, §2, §3, §4, §5, §6, §7

[10] = dog, in vivo; remark: listed apart in the source
Excerpt: as §18, §19, §20, §9, §21, §10, §22, §11, §12

[11] = both, Beagle, dog, plasma, iv, 2 mg/kg

## NS(=O)(=O)c1ccc(N2N=C(C(F)(F)F)C[C@H]2c2ccc(F)cc2F)cc1 (racemic) [Enflicoxib, 4‐(5‐(2,4‐difluorophenyl)‐3‐(trifluoromethyl)‐4,5‐dihydro‐1H‐pyrazol‐1‐yl) benzenesulfonamide]
[1]; all three dose levels (1X, 3X, 5X), weekly oral, all dogs
  tolerability: well tolerated
[1]; 4 mg/kg, week 13, mean ± SD
  AUC: 47600 ng·h/mL
[1]; 4 mg/kg, week 31, mean ± SD
  AUC: 64000 ng·h/mL
[1]; 4 mg/kg, group 1X (8 + 4 mg/kg weekly oral), week 1, mean ± SD, n=8
  Cmax: 2020 ± 461 ng/mL
[1]; 4 mg/kg, group 1X, week 13, mean ± SD
  Cmax: 878 ± 319 ng/mL
[1]; 4 mg/kg, group 1X, week 31, mean ± SD
  Cmax: 1450 ± 374 ng/mL
[1]; 8 mg/kg, week 1, mean ± SD
  AUC: 87900 ng·h/mL
[1]; 12 mg/kg, group 3X, week 13, mean ± SD
  Cmax: 2760 ± 817 ng/mL
[1]; 12 mg/kg, group 3X, week 31, mean ± SD
  Cmax: 3380 ± 1120 ng/mL
[1]; 20 mg/kg, group 5X (40 + 20 mg/kg), week 1, mean ± SD
  Cmax: 9590 ± 2040 ng/mL
[1]; 20 mg/kg, group 5X, week 13, mean ± SD
  Cmax: 4390 ± 1050 ng/mL
[1]; 24 mg/kg, group 3X (12 + 24 mg/kg as printed), week 1, mean ± SD
  Cmax: 6050 ± 1390 ng/mL
[1]; group 1X, week 13 vs week 1, based on AUC168
  Normalised accumulation ratio: 0.93
[1]; group 1X, week 31 vs week 1
  Normalised accumulation ratio: 1.05
[1]; group 3X, week 13 vs week 1
  Normalised accumulation ratio: 0.9
[1]; group 3X, week 31 vs week 1
  Normalised accumulation ratio: 1.15
[1]; group 5X, week 13 vs week 1
  Normalised accumulation ratio: 1
[1]; week 1 after loading dose, all groups, 6 h = first sampling time
  time of Cmax: 6 h
[1]; week 13, all groups
  pre‐dose plasma concentration: below 100 ng/ml
[1]; weeks 1 and 13, actual doses, linear regression
  correlation coefficient, adjusted PK parameters (Cmax, AUC168) vs dose level: higher than 0.8
[1]
  accumulation ratio, loading dose normalised to maintenance dose: ~1
[1]; listed as parent compound
  accumulation ratio, loading dose normalised to maintenance dose: less than 1
[1]; weeks 13 and 31 vs week 1, all three dose levels
  accumulation ratio based on AUC168 (not normalised): approximately 0.5
[2]; IV 2 mg/kg enflicoxib, harmonic mean [min-max], pyrazol metabolite n=4
  t1/2: 19.77 [11.2–29.7] h
[2]; [11]
  Vd: 4 L/kg
  clearance: 2.33 mL/min/kg
[2]; both, Beagle, dog, plasma, iv, 2 mg/kg, t1/2, IV 2 mg/kg enflicoxib, harmonic mean [min-max], pyrazol metabolite n=4
  half-life: 20 h
Plasma proteins
  fraction unbound at 4 h: 0.0099 to 0.0262
COX‐2
  inhibition of COX‐2 enzymatic activity: potent inhibitors
[3]
  solubility in water: practically insoluble
[4]
  synovial fluid concentration: BLLOQ
[5]
  blood plasma ratio at 60 min, 1 µg/ml: 1.07
  blood plasma ratio at 60 min, 5 µg/ml: 0.66
  blood plasma ratio at 60 min, 15 µg/ml: 0.66
[6]; oral, 8 mg/kg, oral 8 mg/kg fasted vs IV 2 mg/kg
  bioavailability: 44%
[6]; oral, 8 mg/kg, oral 8 mg/kg fed vs IV 2 mg/kg
  bioavailability: 63%
[6]; other: IV or oral, whatever the feeding condition, terminal elimination half‐life (t1/2), all routes of administration (IV or oral, whatever the feeding condition)
  half-life: 20 h
[6]; po, 8 mg/kg, oral 8 mg/kg fed vs IV 2 mg/kg
  bioavailability: 63.4%
[6]; po, 8 mg/kg, fasted
  Tmax: 4 h
[6]; po, 8 mg/kg, fed
  Tmax: 2 h
[6]; po, 8 mg/kg, t1/2, single oral 8 mg/kg enflicoxib, fasted, harmonic mean
  half-life: 18.3 h
[6]; po, 8 mg/kg, t1/2, single oral 8 mg/kg enflicoxib, fed, harmonic mean
  half-life: 19.7 h
[6]; oral 8 mg/kg fasted vs IV 2 mg/kg
  F% (absolute oral bioavailability): 44.1%
[6]; oral 8 mg/kg, fed vs fasted
  increase of extent of absorption and plasma exposure by food: 43%
[6]; oral fed vs oral fasted, 8 mg/kg
  Frel% (relative oral bioavailability): 143.3%

## NS(=O)(=O)c1ccc(-n2nc(C(F)(F)F)cc2-c2ccc(F)cc2F)cc1 [Pyrazol metabolite]
[7]
  AUClast: 1,56,500 ± 39,810 (25.4) ng·h/ml
  Cmax: 384.5 ± 123.8 (32.2) ng/ml
  MRTlast: 329.5 ± 27.46 (8.3) h
  Tmax: 96 [48–96] h
[8]
  ratio synovial fluid versus plasma: 0.031-0.078
[9]
  accumulation ratio between weeks 13 and 31, range of dogs: 0.56-1.49
  accumulation ratio week 31 vs week 13: around 1.3
  correlation coefficient, adjusted PK parameters (Cmax, AUC168) vs dose level: > 0.9
COX‐2
  inhibition of COX‐2 enzymatic activity: potent inhibitors
[10]
  F% (absolute oral bioavailability): 49.3%
  mean terminal elimination half‐life (t½): 408 h
  terminal elimination half‐life (t1/2): 336 to 406 h
[10]; po, 8 mg/kg
  AUCinf: 4,22,700 ± 2,54,500 (60.2) ng·h/ml
  AUClast: 3,91,500 ± 2,55,100 (65.2) ng·h/ml
  Cmax: 890.3 ± 551.3 (61.9) ng/ml
  Tmax: 120.00 [48.00–336.00] h
  Tmax, oral doses (fed and fasted), median: 120 to 144 h
  t1/2: 353.9 [255–491] h
